Source: patent US10927115B2, “Substituted heterocycles for targeting Hsp90” (Duke University, priority 2012, dated 2021)

Legend:
Hsp90 and GRP94 = assay: Purinome captured on ATP Sepharose interrogated with compounds in parallel; eluted proteins identified by MS; type: binding, pig; settings: FIG. 3; SDS-PAGE silver staining, mass spectrometry
Excerpt: The purinome was captured from pig mammary gland extract as described (Hughes et al., Bioorg Med Chem. 2012, 20(10):3298-3305) on gamma phosphate linked ATP Sepharose. Following extensive washing with physiological buffers to remove non-specifically associated proteins, the resin was divided equally and interrogated with the indicated compounds in parallel as described (Hughes et al 2012). All eluted proteins were characterized by SDS-PAGE and silver staining, and then identified by mass spectrometry. […] Key: GRP94, glucose regulated protein 94; Hsp90, heat shock protein 90; LAPT, lapatinimb; Hsp90 STD, purified Hsp90; 17-AAG, derivatized form of geldanamycin, BLK, vehicle control consisting of buffer containing 10% DMSO used to solubilize all compounds included in the test.

Hsp90 [1] = assay: Affinity resin capture of Hsp90 from pig mammary gland extract (SDS-PAGE silver stain, MS sequencing); type: binding; settings: 1 mM compound 5 pre-incubated in the tissue extract
Experimental: Several media were prepared as described in Example 7, using compounds 6, 7, 8 and 9. These resins were termed A, B, C and D respectively. To prepare the resin in each case, the appropriate compound was added at 1-10 μmol/gram of resin in minimal methanol.
The ability of each resin to selectively capture Hsp90 from pig mammary gland extract, a tissue shown to be high in ATP binding proteins including native forms of Hsp90, GRP94 and TRAP1, was evaluated. The resin was incubated in the protein solution then washed with a high salt buffer. The bound proteins were removed via an SDS boil procedure, separated by SDS-PAGE electrophoresis, located by silver staining and identified using mass spectrometry (MS) sequencing. […] In the case of resin E (Example 7), bound proteins were eluted with 25 mM sodium dithionite in phosphate-buffered saline.

MCF7 cells = assay: Compound 10 fluorescence in MCF7 cells with anti-Hsp90 antibody or competing compound 5; type: cell-based; settings: FIG. 6C
Experimental: In FIG. 6B, the compound was added in the presence of an antibody to Hsp90. […] DAPI (blue) highlights the nucleus of the cell. In FIG. 6 the green staining from compound 10 fluorescence appears white, while blue from the DAPI-stained nuclei appears gray.

BT474 cells = assay: Competition of compound 10 signal by compound 5 in permeabilized cells (plate reader fluorescence); type: cell-based; settings: compound 5 0-10 μM; escin; 30 minutes; Ex488/Em522 nm; FIG. 9
Experimental: BT474 cells were incubated with varying doses of compound 5 (0 μM, 0.01 μM, […], 1 μM and 10 μM) in the presence of a fixed concentration of compound 10 ([…]) and a cell permeabilizing agent (escin) for 30 minutes. The cells were then washed to remove the free probe and cell extracts prepared from the homogenized cells. The amount of drug uptake was then measured by fluorescence (Ex488/Em522 nm) in a micro plate fluorescence reader.

GRP94 = target: T1, GRP94 (Sus scrofa, UniProt Q29092); assay: Elution of pig mammary gland proteins from gamma phosphate linked ATP Sepharose with increasing amounts of compound; type: binding; settings: FIG. 2
T1 construct: The ATP resin was charged with the pig mammary gland extract; from tissue; host or cells: pig mammary gland extract captured on gamma phosphate linked ATP Sepharose
Excerpt: (§1) The ATP resin was charged with the pig mammary gland extract and aliquots were distributed into individual wells.

Hsp90 [2] = assay: as above; type: binding; settings: FIG. 2
Excerpt: as §1

T1 sequence (Q29092 22-804): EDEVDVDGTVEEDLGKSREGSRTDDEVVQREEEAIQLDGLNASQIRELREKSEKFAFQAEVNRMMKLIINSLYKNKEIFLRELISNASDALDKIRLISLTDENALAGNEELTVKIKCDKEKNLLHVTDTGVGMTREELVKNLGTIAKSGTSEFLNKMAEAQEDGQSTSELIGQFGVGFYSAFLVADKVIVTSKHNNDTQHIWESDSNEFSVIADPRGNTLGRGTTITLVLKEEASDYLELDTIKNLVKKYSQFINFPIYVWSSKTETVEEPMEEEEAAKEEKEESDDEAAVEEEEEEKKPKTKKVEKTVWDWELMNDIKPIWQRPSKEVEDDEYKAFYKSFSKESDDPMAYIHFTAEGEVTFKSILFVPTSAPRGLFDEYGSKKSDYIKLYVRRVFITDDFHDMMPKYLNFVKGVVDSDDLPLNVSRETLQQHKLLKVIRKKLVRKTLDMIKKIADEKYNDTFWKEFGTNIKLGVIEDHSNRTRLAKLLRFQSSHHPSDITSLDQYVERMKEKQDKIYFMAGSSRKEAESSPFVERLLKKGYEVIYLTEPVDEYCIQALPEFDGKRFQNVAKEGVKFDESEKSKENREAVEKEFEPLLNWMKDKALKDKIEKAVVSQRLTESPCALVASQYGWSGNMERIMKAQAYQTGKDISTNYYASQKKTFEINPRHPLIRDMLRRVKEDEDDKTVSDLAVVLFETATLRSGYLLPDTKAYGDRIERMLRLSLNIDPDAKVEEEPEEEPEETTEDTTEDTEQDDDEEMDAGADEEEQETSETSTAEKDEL

| Compound | proteins recognized (eluted from ATP Sepharose) (Hsp90 and GRP94) | also measured |
| --- | --- | --- |
| 2-((19-di(ferrocenemethylamino)-4,7,10,13,16-pentaoxanonadecyl)amino)-4-(3,6,6-trimethyl-4-oxo-4,5,6,7-tetrahydro-1H-indazol-1-yl)benzamide [Compound 27] | only recognize Hsp90 | – |
| 17-alkylamino-17-desmethoxygeldanamycin [Compound 17-AAG, reference compound] | specificity for both Hsp90 and GRP94 | – |
| Cc1nn(-c2ccc(C(N)=O)c(N[C@H]3CC[C@H](O)CC3)c2)c2c1C(=O)CC(C)(C)C2 [Compound 5, 2-(((1r,4r)-4-Hydroxycyclohexyl)amino)-4-(3,6,6-trimethyl-4-oxo-4,5,6,7-tetrahydro-1H-indazol-1-yl)benzamide, reference compound] | specificity for both Hsp90 and GRP94 | competition of protein binding to the resins (Hsp90 [1]): clean exclusion of Hsp90 but not other proteins; competition of compound 10 fluorescence signal (MCF7 cells): competes away the fluorescence signal; competition of the signal from compound 10 (BT474 cells): effectively competed |
| Cc1nn(-c2ccc(C(N)=O)c(NCCCOCCOCCOCCOCCOCCCN)c2)c2c1C(=O)CC(C)(C)C2 [Compound 8, 2-((19-Amino-4,7,10,13,16-pentaoxanonadecyl)amino)-4-(3,6,6-trimethyl-4-oxo-4,5,6,7-tetrahydro-1H-indazol-1-yl)benzamide] | only recognize Hsp90 | elution of GRP94 from ATP resin (GRP94): essentially no elution |
| Cc1nn(-c2ccc(C(N)=O)c(NCCCOCCOCCOCCOCCOCCCNc3ccc([N+](=O)[O-])c4nonc34)c2)c2c1C(=O)CC(C)(C)C2 [Compound 11, 2-((19-((7-nitrobenzo[c][1,2,5]oxadiazol-4-yl)amino)-4,7,10,13,16-pentaoxanonadecyl)amino)-4-(3,6,6-trimethyl-4-oxo-4,5,6,7-tetrahydro-1H-indazol-1-yl)benzamide] | only recognize Hsp90 | – |
| Cc1nn(-c2ccc(C(N)=O)c(NCCCOCCOCCOCCOCCO)c2)c2c1C(=O)CC(C)(C)C2 [Compound 19, 2-((1-hydroxy-3,6,9,12-tetraoxapentadecan-15-yl)amino)-4-(3,6,6-trimethyl-4-oxo-4,5,6,7-tetrahydro-1H-indazol-1-yl)benzamide] | only recognize Hsp90 | – |
| Cc1nn(-c2ccc(C(N)=O)c(NCCCOCCOCCOCCOCCOCCCNc3cc(-n4nc(C)c5c4CC(C)(C)CC5=O)ccc3C(N)=O)c2)c2c1C(=O)CC(C)(C)C2 [Compound 20, 2,2′-(4,7,10,13,16-pentaoxanonadecane-1,19-diylbis(azanediyl))bis(4-(3,6,6-trimethyl-4-oxo-4,5,6,7-tetrahydro-1H-indazol-1-yl)benzamide)] | only recognize Hsp90 | – |
| Cc1nn(-c2ccc(C(N)=O)c(N[C@H]3CC[C@H](N)CC3)c2)c2c1C(=O)CC(C)(C)C2 [Compound 28, 2-(((1r,4r)-4-aminocyclohexyl)amino)-4-(3,6,6-trimethyl-4-oxo-4,5,6,7-tetrahydro-1H-indazol-1-yl)benzamide] | only recognize Hsp90 | – |
| Cc1nn(-c2ccc(C(N)=O)c(N[C@H]3CC[C@H]([N+](C)(C)C)CC3)c2)c2c1C(=O)CC(C)(C)C2 [Compound 29, (1r,4r)-4-((2-carbamoyl-5-(3,6,6-trimethyl-4-oxo-4,5,6,7-tetrahydro-1H-indazol-1-yl)phenyl)amino)-N,N,N-trimethylcyclohexanaminium] | only recognize Hsp90 | – |
| CC(C)NCCCn1c(Sc2cc3c(cc2I)OCO3)nc2c(N)ncnc21 [PU-H71] | specificity for both Hsp90 and GRP94 | elution of GRP94 from ATP resin (GRP94): strong potency; elution of Hsp90 from ATP resin (Hsp90 [2]): strong potency |
| CC1(C)CC(=O)c2c(C(F)(F)F)nn(-c3ccc(C(N)=O)c(N[C@H]4CC[C@H](O)CC4)c3)c2C1 [SNX-2112] | – | elution of GRP94 from ATP resin (GRP94): weaker affinity |
